Assay [1] concerns T24-BAG4 human bladder carcinoma cells expressing an activated H-ras gene. Briefly: Cell Mat Assay: tumor cell colony inhibition (tIC50). The class given is cell-based. The following applies: inhibition of tumor cell growth. The protocol:
(§1) Compound-induced colony inhibition was assayed by addition of serial dilutions of compound directly to the growth medium 24 h after tumor cell planting, and incubating cells for an additional 14 d to allow colony formation. Assays were terminated by rinsing monolayers twice with phosphate-buffered saline (PBS), fixing the monolayers with a 1% glutaraldehyde solution in PBS, then visualizing tumor cells by staining with X-Gal (Price, J., et al., Lineage analysis in the vertebrate nervous system by retrovirus-mediated gene transfer, Proc. Natl. Acad. Sci.84, 156-160(1987)). […] Both IC50 values were obtained by determining the density of tumor cells and mat cells by visual inspection and enumeration of cells per colony and the number of colonies under the microscope.

For assay [2], the target named is T1, farnesyl protein transferase (FPT), partially purified from rat brain (Rattus norvegicus, UniProt Q02293+Q04631).
T1 construct: were partially purified from rat brain by ammonium sulfate fractionation followed by Q-Sepharose
Briefly: Inhibition of farnesyl protein transferase (transfer of [3H]farnesyl to Ras-CVLS). It is filed as biochemical. The following applies: partially purified rat brain FPT. In short, it runs like this:
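Transfer of [3H]farnesyl onto E. coli-expressed, His6-tagged Ras-CVLS was measured after 30 min at room temperature. Radiolabelled Ras was TCA-precipitated on ice and filter-harvested, and inhibition was expressed as percent of DMSO control.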

The test system of assay [3] is Normal human HEPM fibroblasts. Briefly: Cell Mat Assay: density of mat cells (mIC50). It is filed as cell-based. Particulars: Homo sapiens, Fibroblast. As to the method:
as §1

Setting [4] is: Ras-CVLS farnesylation, read-out: FPT IC50.
[5] abbreviates: FPT IC50, Ras-CVLS farnesylation.

Read-outs that look alike come from different tables or passages of the source.

T1 sequence (Q02293 whole entry, one chain of several): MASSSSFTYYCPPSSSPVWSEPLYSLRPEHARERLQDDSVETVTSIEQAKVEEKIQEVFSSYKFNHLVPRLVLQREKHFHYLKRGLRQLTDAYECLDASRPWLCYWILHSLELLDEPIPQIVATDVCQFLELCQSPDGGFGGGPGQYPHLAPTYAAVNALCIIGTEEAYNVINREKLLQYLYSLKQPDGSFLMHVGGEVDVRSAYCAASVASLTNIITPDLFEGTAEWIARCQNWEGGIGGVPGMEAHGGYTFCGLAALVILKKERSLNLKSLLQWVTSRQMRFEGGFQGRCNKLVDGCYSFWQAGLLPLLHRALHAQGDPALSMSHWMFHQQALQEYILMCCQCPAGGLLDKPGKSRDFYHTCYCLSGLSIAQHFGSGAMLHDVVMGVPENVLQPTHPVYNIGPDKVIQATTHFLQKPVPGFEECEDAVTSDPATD

Regarding `CC(S)C(=O)NCC(=O)N1CCN(C2c3ccc(Cl)cc3CCc3cccnc32)CC1` (stereo not shown) [Example 81], the IC50 (usually the concentration needed to halve the response being measured) in assay [1] (Homo sapiens) was more than 50 µM; in assay [2] (setting [4]) it was 2.78 µM; in assay [3], more than 50 µM.
`NS(=O)(=O)c1ccc(C(=O)N2CCC(=C3c4ccc(Cl)cc4CCc4cccnc43)CC2)cc1` [Example 90]: the half-inhibitory concentration (IC50) in assay [1] (Homo sapiens) is 50 µM; in assay [2] (setting [4]) it was 3.4 µM; in assay [3], more than 50 µM.
In the case of `CS(=O)(=O)Nc1ccc(C(=O)N2CCC(=C3c4ccc(Cl)cc4CCc4cccnc43)CC2)cc1` [Example 91], the half-maximal inhibitory concentration (IC50) is 50 µM in assay [1] (Homo sapiens), 3.9 µM in assay [2] (setting [4]) and 80 µM in assay [3].
The like results for `CS(=O)(=O)c1ccc(C(=O)N2CCC(=C3c4ccc(Cl)cc4CCc4cccnc43)CC2)cc1` [Example 93] were, in that order, 40 µM, 3.9 µM and more than 50 µM.
As to `C[S+]([O-])c1ccc(C(=O)N2CCC(=C3c4ccc(Cl)cc4CCc4cccnc43)CC2)cc1` (stereo not shown) [Example 94], the IC50 in assay [1] (Homo sapiens) turned out to be 40 µM; in assay [2] (setting [4]), 4 µM; in assay [3], 80 µM.
The corresponding values for `O=C(C1CCS(=O)(=O)CC1)N1CCC(=C2c3ccc(Cl)cc3CCc3cccnc32)CC1` [Example 95] are more than 50 µM, 4.2 µM and more than 50 µM.
The corresponding values for `O=C(/C=C/c1cccnc1)N1CCC(=C2c3ccc(Cl)cc3CCc3cccnc32)CC1` [Example 96] are 50 µM, 4.3 µM and more than 50 µM.
The like results for `O=C(C1CCC(O)CC1)N1CCC(=C2c3ccc(Cl)cc3CCc3cccnc32)CC1` (stereo not shown) [Example 97] were, in that order, more than 50 µM, 4.4 µM and more than 50 µM.
As to `O=C(c1ccc(Cl)nc1)N1CCC(=C2c3ccc(Cl)cc3CCc3cccnc32)CC1` [Example 98], the results for the IC50 in assay [1] (Homo sapiens), in assay [2] (setting [4]) and in assay [3] were 50 µM, 4.4 µM and more than 50 µM, respectively.
As for `S=C(c1ccccc1)N1CCC(=C2c3ccc(Cl)cc3CCc3cccnc32)CC1` [Example 121], the IC50 in assay [1] (Homo sapiens) is 50 µM; in assay [2] (setting [4]), 1.4 µM; in assay [3], more than 50 µM.
The like results for `O=C(Cc1ccccc1[N+](=O)[O-])N1CCC(=C2c3ccc(Cl)cc3CCc3cccnc32)CC1` [Example 126] were, in that order, 50 µM, 2.9 µM and more than 50 µM.
The corresponding values for `O=C(Cc1ccc(O)cc1)N1CCC(=C2c3ccc(Cl)cc3CCc3cccnc32)CC1` [Example 128] are 25 µM, 3 µM and more than 50 µM.
As for `O=C(Nc1ccccc1)N1CCN(C2c3ccc(Cl)cc3CCc3cccnc32)CC1` (stereo not shown) [Example 182], the IC50 was 37 µM in assay [1] (Homo sapiens), 1.09 µM in assay [2] (setting [4]) and more than 50 µM in assay [3].
In the case of `CN(C)c1ccc(CC(=O)N2CCN(C3c4ccc(Cl)cc4CCc4cccnc43)CC2)cc1` (stereo not shown) [Example 189], the IC50 was 37 µM in assay [1] (Homo sapiens), 2.44 µM in assay [2] (setting [5]) and more than 50 µM in assay [3].
For the compound `CC(C)(C(=O)N1CCN(C2c3ccc(Cl)cc3CCc3cccnc32)CC1)c1ccccc1` (stereo not shown) [Example 190], the values for the 50% inhibitory concentration (IC50) in assay [1] (Homo sapiens), in assay [2] (setting [4]) and in assay [3] were more than 50 µM, 3.3 µM and more than 50 µM, respectively.
For the compound `CC(C(=O)N1CCN(C2c3ccc(Cl)cc3CCc3cccnc32)CC1)c1cccnc1` (stereo not shown) [Example 191], the IC50 in assay [1] (Homo sapiens) is less than 3.1 µM; in assay [2] (setting [4]), 4.9 µM; in assay [3] it was 50 µM.
Turning to `O=C(Cc1ccccn1)N1CCN(C2c3ccc(Cl)cc3CCc3cccnc32)CC1` (stereo not shown) [Example 196], the IC50 is 37 µM in assay [1] (Homo sapiens), 25 µM in assay [1] (listed as 196 (5.69)), 0.36 µM in assay [2] (setting [5]) and more than 50 µM in assay [3].
In the case of `O=C(Cc1ccc[n+]([O-])c1)N1CCN(C2c3ccc(Cl)cc3CCc3cccnc32)CC1` (stereo not shown) [Example 197], the half-inhibitory concentration (IC50) in assay [1] (Homo sapiens) is 25 µM; in assay [2] (setting [5]), 1.17 µM; in assay [3], more than 50 µM.

Values taken from patent publication US20030055065A1, “Tricyclic amide and urea compounds useful for inhibition of G-protein function and for treatment of proliferative diseases” (priority 1993, published 2003).
